{"source": "patent US10633669B2", "about": "“Herbicide-resistant protein, encoding gene and use thereof” (BEIJING DABEINONG TECHNOLOGY GROUP CO., LTD., priority 2015, dated 2020)", "key": {"[1]": {"test_system": "Arabidopsis T1 plants transformed with 24DT11 nucleotide sequence", "experiment": "Herbicide resistance effect test of transgenic Arabidopsis T1 plants (spray)", "assay_type": "in vivo, Arabidopsis thaliana", "details": "genotype 24DT11", "source_text": "(§1) 24DT11 gene was used to transform Arabidopsis for the first time. At first, T1 transformants were selected from the background of un-transformed seeds, using glufosinate-ammonium selection scheme. About 20000 T1 seeds are screened among which 282 strains of T1 generation positive transformants (PAT gene) were identified, i.e. the transformation efficiency was about 1.4%. Herbicide resistance effect tests to 2,4-D dimethyl ammonium salt and agroxone of Arabidopsis T1 plants transformed with 24DT11 nucleotide sequence, control nucleotide sequence respectively and wild-type Arabidopsis plants were performed after 18 days of planting.\n(§2) Arabidopsis T1 plants transformed with 24DT11 nucleotide sequence, control nucleotide sequence respectively and wild-type Arabidopsis plants were sprayed with 2,4-D dimethyl ammonium salt (560 g ae/ha, 1-fold concentration in field), agroxone (560 g ae/ha, 1-fold concentration in field) and blank solvent (water). Resistance conditions of the plants were counted 7 days and 14 days after spraying. Plants with growth conditions consistent with blank solvent (water) 7 days after spaying were classified as highly resistant plants; Plants with curly rosette leaves 7 days after spaying were classified as moderately resistant plants; Plants incapable of bolting 14 days after spaying were classified as low-resistant plants and the dead plants 14 days after spaying were classified as non-resistant plants. Because each Arabidopsis T1 plant is an independent transformation event, significant differences of individual T1 responses can be expected under a given dose."}, "[2]": {"test_system": "Arabidopsis T1 plants transformed with control nucleotide sequence", "experiment": "Herbicide resistance effect test of Arabidopsis T1 plants with control sequence (spray)", "assay_type": "in vivo, Arabidopsis thaliana", "details": "genotype Control, 560 g ae/ha", "source_text": "as §1, §2"}, "[3]": {"test_system": "wild-type Arabidopsis plants", "experiment": "Herbicide resistance effect test of wild-type Arabidopsis (spray)", "assay_type": "in vivo, Arabidopsis thaliana", "details": "genotype Wild, 560 g ae/ha", "source_text": "as §1, §2"}, "[4]": {"test_system": "Soybean plants containing 24DT11 nucleotide sequence (S1, S2 and S3)", "experiment": "Herbicide-resistance effect of transgenic soybean plants (spray, damage degree)", "assay_type": "in vivo", "details": "for Average damage % 6HAT: 6 hours after spraying; for Average damage % 2DAT: 2 days after spraying; for Average damage % 7DAT: 7 days after spraying; for Average damage % 14DAT: 14 days after spraying", "procedure": "(§3) Herbicide resistance effects tests to 2,4-D dimethyl ammonium salt and agroxone of soybean plants containing 24DT11 nucleotide sequence and control nucleotide sequence respectively and wild type soybean plants (stages V3-V4) were performed respectively.\n(§4) Soybean plants containing 24DT11 nucleotide sequence, control nucleotide sequence and wild type soybean plants were taken and spayed with 2,4-D dimethyl ammonium salt (2240 g ae/ha, four-folds concentration in field), agroxone (2240 g ae/ha, four-folds concentration in field) and blank solvent (water). Take statistics of the damage degree of each plant caused by herbicides according to the curling degree of leaves and the damage degree of growing point six hours ([…]), two days (2DAT), seven days (7DAT) and 14 days (14DAT) after spraying respectively: if leaves are flat like wild-type leaves and the growing point is intact, the damage degree is 0%; if leaves curl up and wilt and the growing point is died, the damage degree is 100%. There are three strains contained a transferred 24DT11 nucleotide sequence (S1, S2 and S3), two strains contained a transferred control sequence (S4 and S5) and one wild-type strain (CK1) in total; select 10˜15 plants from each strain for testing."}, "[5]": {"test_system": "Soybean plants containing control nucleotide sequence (S4 and S5)", "experiment": "Herbicide-resistance effect of soybean plants with control sequence (spray, damage degree)", "assay_type": "in vivo", "details": "2240 g ae/ha; for Average damage % 6HAT: 6 hours after spraying; for Average damage % 2DAT: 2 days after spraying; for Average damage % 7DAT: 7 days after spraying; for Average damage % 14DAT: 14 days after spraying", "procedure": "as §3, §4"}, "[6]": {"test_system": "wild type soybean plants (CK1)", "experiment": "Herbicide-resistance effect of wild type soybean (spray, damage degree)", "assay_type": "in vivo", "details": "wild-type soybean strain CK1, 2240 g ae/ha", "procedure": "as §3, §4"}, "[7]": {"test_system": "Corn plants containing 24DT11 nucleotide sequence (S6, S7 and S8)", "experiment": "Herbicide-resistance effect test of transgenic corn plants (spray, prop root development)", "assay_type": "in vivo", "details": "21 days after spraying", "procedure": "(§5) Herbicide resistance effects tests to 2,4-D dimethyl ammonium salt and agroxone of corn plants containing 24DT11 nucleotide sequence, control nucleotide sequence respectively and wild type corn plants (stages V3-V4) were performed respectively.\n(§6) Corn plants containing 24DT11 nucleotide sequence, control nucleotide sequence respectively and wild type corn plants were taken and spayed with 2,4-D dimethyl ammonium salt (8960 g ae/ha, 16-folds concentration in field), agroxone (8960 g ae/ha, 16-folds concentration in field) and blank solvent (water) respectively. Prop root development was counted 21 days after spaying. Three strains (S6, S7 and S8) of corn plants transformed with 24DT11 nucleotide sequence, two strains (S9 and S10) of corn plants transformed with control nucleotide sequence and 1 strain of wild type (CK2) corn were selected and 10-15 plants from each stain were tested."}, "[8]": {"test_system": "Corn plants containing control nucleotide sequence (S9 and S10)", "experiment": "Herbicide-resistance effect test of corn plants with control sequence (spray, prop root development)", "assay_type": "in vivo", "details": "8960 g ae/ha, 21 days after spraying", "procedure": "as §5, §6"}, "[9]": {"test_system": "wild type corn plants (CK2)", "experiment": "Herbicide-resistance effect test of wild type corn (spray, prop root development)", "assay_type": "in vivo", "details": "wild type corn strain CK2; 8960 g ae/ha; 21 days after spraying", "procedure": "as §5, §6"}, "[10]": {"details": "curly rosette leaves 7 days after spraying"}, "[11]": {"details": "growth consistent with blank solvent 7 days after spraying"}, "[12]": {"details": "incapable of bolting 14 days after spraying"}, "[13]": {"details": "soybean strain S1 (24DT11), 2240 g ae/ha"}, "[14]": {"details": "soybean strain S2 (24DT11), 2240 g ae/ha"}, "[15]": {"details": "soybean strain S3 (24DT11), 2240 g ae/ha"}, "[16]": {"details": "soybean strain S4 (control sequence)"}, "[17]": {"details": "soybean strain S5 (control sequence)"}, "[18]": {"details": "corn strain S6 (24DT11), 8960 g ae/ha"}, "[19]": {"details": "corn strain S7 (24DT11), 8960 g ae/ha"}, "[20]": {"details": "corn strain S8 (24DT11), 8960 g ae/ha"}, "[21]": {"details": "corn strain S9 (control sequence)"}, "[22]": {"details": "corn strain S10 (control sequence)"}}, "data": [{"smiles": "CNC.O=C(O)COc1ccc(Cl)cc1Cl", "note": "[2,4-D dimethyl ammonium salt]", "values": [{"measurement": "High resistant (number of plants)", "setting": "[1]; 560 g ae/ha (1-fold field concentration), growth consistent with blank solvent 7 days after spraying", "result": 26}, {"measurement": "Moderate resistant (number of plants)", "setting": "[1]; 560 g ae/ha, curly rosette leaves 7 days after spraying", "result": 2}, {"measurement": "Non-resistant (number of plants)", "setting": "[1]; 560 g ae/ha, dead 14 days after spraying", "result": 3}, {"measurement": "Low resistant (number of plants)", "setting": "[1]; 560 g ae/ha, incapable of bolting 14 days after spraying", "result": 1}, {"measurement": "Moderate resistant (number of plants)", "setting": "[2]; [10]", "result": 0}, {"measurement": "Non-resistant (number of plants)", "setting": "[2]; dead 14 days after spraying", "result": 32}, {"measurement": "High resistant (number of plants)", "setting": "[2]; [11]", "result": 0}, {"measurement": "Low resistant (number of plants)", "setting": "[2]; [12]", "result": 0}, {"measurement": "Moderate resistant (number of plants)", "setting": "[3]; [10]", "result": 0}, {"measurement": "Non-resistant (number of plants)", "setting": "[3]; dead 14 days after spraying", "result": 32}, {"measurement": "High resistant (number of plants)", "setting": "[3]; [11]", "result": 0}, {"measurement": "Low resistant (number of plants)", "setting": "[3]; [12]", "result": 0}, {"measurement": "Average damage % 6HAT", "setting": "[4]; soybean strain S1 (24DT11), 2240 g ae/ha (4-fold field)", "result": 7, "unit": "%"}, {"measurement": "Average damage % 2DAT", "setting": "[4]; [13]", "result": 4, "unit": "%"}, {"measurement": "Average damage % 7DAT", "setting": "[4]; [13]", "result": 0, "unit": "%"}, {"measurement": "Average damage % 14DAT", "setting": "[4]; [13]", "result": 0, "unit": "%"}, {"measurement": "Average damage % 6HAT", "setting": "[4]; [14]", "result": 5, "unit": "%"}, {"measurement": "Average damage % 2DAT", "setting": "[4]; [14]", "result": 2, "unit": "%"}, {"measurement": "Average damage % 7DAT", "setting": "[4]; [14]", "result": 0, "unit": "%"}, {"measurement": "Average damage % 14DAT", "setting": "[4]; [14]", "result": 0, "unit": "%"}, {"measurement": "Average damage % 6HAT", "setting": "[4]; [15]", "result": 13, "unit": "%"}, {"measurement": "Average damage % 2DAT", "setting": "[4]; [15]", "result": 6, "unit": "%"}, {"measurement": "Average damage % 7DAT", "setting": "[4]; [15]", "result": 2, "unit": "%"}, {"measurement": "Average damage % 14DAT", "setting": "[4]; [15]", "result": 0, "unit": "%"}, {"measurement": "Average damage % 6HAT", "setting": "[5]; [16]", "result": 46, "unit": "%"}, {"measurement": "Average damage % 2DAT", "setting": "[5]; [16]", "result": 76, "unit": "%"}, {"measurement": "Average damage % 7DAT", "setting": "[5]; [16]", "result": 96, "unit": "%"}, {"measurement": "Average damage % 14DAT", "setting": "[5]; [16]", "result": 100, "unit": "%"}, {"measurement": "Average damage % 6HAT", "setting": "[5]; [17]", "result": 53, "unit": "%"}, {"measurement": "Average damage % 2DAT", "setting": "[5]; [17]", "result": 77, "unit": "%"}, {"measurement": "Average damage % 7DAT", "setting": "[5]; [17]", "result": 91, "unit": "%"}, {"measurement": "Average damage % 14DAT", "setting": "[5]; [17]", "result": 100, "unit": "%"}, {"measurement": "Average damage % 6HAT", "setting": "[6]; 6 hours after spraying", "result": 48, "unit": "%"}, {"measurement": "Average damage % 2DAT", "setting": "[6]; 2 days after spraying", "result": 72, "unit": "%"}, {"measurement": "Average damage % 7DAT", "setting": "[6]; 7 days after spraying", "result": 94, "unit": "%"}, {"measurement": "Average damage % 14DAT", "setting": "[6]; 14 days after spraying", "result": 100, "unit": "%"}, {"measurement": "Normal development of brace roots (number of plants)", "setting": "[7]; corn strain S6 (24DT11), 8960 g ae/ha (16-fold field)", "result": 15}, {"measurement": "Abnormal development of brace roots (number of plants)", "setting": "[7]; [18]", "result": 0}, {"measurement": "Proportion of normal development of brace roots", "setting": "[7]; [18]", "result": 100.00, "unit": "%"}, {"measurement": "Abnormal development of brace roots (number of plants)", "setting": "[7]; [19]", "result": 0}, {"measurement": "Normal development of brace roots (number of plants)", "setting": "[7]; [19]", "result": 13}, {"measurement": "Proportion of normal development of brace roots", "setting": "[7]; [19]", "result": 100.00, "unit": "%"}, {"measurement": "Abnormal development of brace roots (number of plants)", "setting": "[7]; [20]", "result": 0}, {"measurement": "Normal development of brace roots (number of plants)", "setting": "[7]; [20]", "result": 12}, {"measurement": "Proportion of normal development of brace roots", "setting": "[7]; [20]", "result": 100.00, "unit": "%"}, {"measurement": "Abnormal development of brace roots (number of plants)", "setting": "[8]; [21]", "result": 13}, {"measurement": "Normal development of brace roots (number of plants)", "setting": "[8]; [21]", "result": 0}, {"measurement": "Proportion of normal development of brace roots", "setting": "[8]; [21]", "result": 0, "unit": "%"}, {"measurement": "Abnormal development of brace roots (number of plants)", "setting": "[8]; [22]", "result": 12}, {"measurement": "Normal development of brace roots (number of plants)", "setting": "[8]; [22]", "result": 0}, {"measurement": "Proportion of normal development of brace roots", "setting": "[8]; [22]", "result": 0, "unit": "%"}, {"measurement": "Abnormal development of brace roots (number of plants)", "setting": "[9]", "result": 14}, {"measurement": "Normal development of brace roots (number of plants)", "setting": "[9]", "result": 0}, {"measurement": "Proportion of normal development of brace roots", "setting": "[9]", "result": 0, "unit": "%"}]}]}
